Test system: patients with headache/migraine
Assay: Blink reflex measuring device: blink-associated parameters before and after treatment, by treatment modality
Format: in vivo, human
Text: In embodiments, the one or more blink-associated parameters are selected from: • (a) latency, optionally in milliseconds, comprising a time differential between stimulation and eyelid movement, e.g., one or more of upper eyelid or lower eyelid; • (b) differential latency, optionally in milliseconds, comprising a time differential between the start of ipsilateral eye movement and the start of contralateral eye movement; • (c) delta 30, comprising a time difference between ipsilateral eye and contralateral eye movement; • (d) eyelid excursion, optionally in pixels, comprising a distance traveled by the eyelid from the tonic lid position to closed position; • (e) initial lid velocity, optionally in pixels/msec, comprising an average eyelid speed following start of eyelid movement, e.g., the first about 5 frames, the first about 7 frames, or the first about 10 frames; • (f) time to close, optionally in log scale, comprising a time for lid to travel from tonic lid position to the closed position; • (g) time to open, optionally in log scale, comprising a time for lid to travel from closed position back to tonic lid position; • (h) time under threshold, optionally in log scale, comprising a time that the eyelid spends below the threshold position; • (i) number of oscillations, comprising cycles of up and down upper eyelid movement after a stimulated blink; • (j) total blink time, optionally in log scale, comprising a time from start of eyelid movement until it returns to its tonic lid position; • (k) number of blinks; • (l) blink rate, optionally per minute; • (m) area under curve, optionally in pixels; • (n) maximum closing velocity, optionally in […], comprising a maximum velocity during eyelid closure; • (o) maximum opening velocity, optionally in […], comprising a maximum velocity during eyelid opening; and • (p) time to first oscillation, optionally in log scale, comprising the elapsed time between the eyelid returning within threshold of a tonic position for a stimulated blink and the onset of the next unstimulated blink.
In this study, a population of male and female migraine patients are assessed for blink reflex response using the blink reflex measuring device. The patients in this study are tested when they visit the doctor during their routine office visits and/or before and after a doctor prescribed therapeutic intervention.
Blink reflex measuring device was used for collecting multiple blink-associated parameters from patients with headache/migraine before and after treatment undergoing treatment.
Blink reflex measuring device was used for collecting multiple blink-associated parameters from patients with headache/migraine before and after undergoing different treatments. The different treatments were intravenous (IV) ketamine infusion therapy, sphenopalatine ganglion (SPG) block+peripheral nerve block (PNB), and IV ketamine+SPG+PNB. The results are shown in TABLE 2, FIGS. 34-6D and FIG. 7.
TABLES 4-6 show the variable changes based on right and left eye by treatment modality: intravenous (IV) ketamine infusion therapy (TABLE 4); sphenopalatine ganglion (SPG) block+peripheral nerve block (PNB) (TABLE 5); and IV ketamine+SPG+PNB (TABLE 6). It is important to note that whereas FIGS. 34-6D and FIG. 7 show the changes based on treatment modality of each variable and show the overall changes predicated on both right and left eye, TABLES 4-6 break down the variables by right and left eye changes.

[1] = left eye, post treatment, Table 4
[2] = post-treatment average, patients with headache/migraine, by treatment modality
[3] = right eye, post treatment, Table 4

## CNC1(c2ccccc2Cl)CCCCC1=O (stereo not drawn) [ketamine]
Left eye, post treatment
  Blink Rate, Left Eye Post Tx: 89.415 per min
  Blinks, Left Eye Post Tx: 5.945 qty
  Delta 30, Left Eye Post Tx: 9.328 ms
  Differential Latency, Left Eye Post Tx: 4.625 ms
  Excursions, Left Eye Post Tx: 91.548 pixels
  Latency, Left Eye Post Tx: 53.958 ms
  Oscillations Rate, Left Eye Post Tx: 2.293 per min
  Oscillations, Left Eye Post Tx: 9.914 no.
  Time to Close, Left Eye Post Tx: 27.686 ms
  Time to First Oscillation, Left Eye Post Tx: 7.301 Ln ms
  Time to Open, Left Eye Post Tx: 286.813 ms
[1]
  Area Under the Curve, Left Eye Post Tx: 10.250 pixels
  Time Under 20, Left Eye Post Tx: 5.228 Ln ms
Patients having a migraine, p=0.05
  Blink reflex differences pre and post treatment via Blink Reflex Measuring Device: Statistical differences
[2]
  Area Under Curve, POST-TX AVERAGE: 29522.632 pixels
  Blink Rate, POST-TX AVERAGE: 83.490 per min
  Blinks, POST-TX AVERAGE: 5.345 qty
  Delta 30, POST-TX AVERAGE: 7.435 ms
  Differential Latency, POST-TX AVERAGE: 6.145 ms
  Excursion, POST-TX AVERAGE: 88.575 pixels
  Latency, POST-TX AVERAGE: 49.827 ms
  Oscillations, POST-TX AVERAGE: 10.273 no.
  Time Under 20, POST-TX AVERAGE: 5.237 Ln ms
  Time to Close, POST-TX AVERAGE: 29.930 ms
  Time to First Oscillation, POST-TX AVERAGE: 7.412 Ln ms
  Time to Open, POST-TX AVERAGE: 307.108 ms
Right eye, post treatment
  Blink Rate, Right Eye Post Tx: 73.691 per min
  Blinks, Right Eye Post Tx: 5.170 qty
  Delta 30, Right Eye Post Tx: 5.766 ms
  Differential Latency, Right Eye Post Tx: 5.438 ms
  Excursions, Right Eye Post Tx: 92.605 pixels
  Latency, Right Eye Post Tx: 52.583 ms
  Oscillations Rate, Right Eye Post Tx: 1.966 per min
  Oscillations, Right Eye Post Tx: 8.606 no.
  Time to Close, Right Eye Post Tx: 31.119 ms
  Time to First Oscillation, Right Eye Post Tx: 7.517 Ln ms
  Time to Open, Right Eye Post Tx: 258.318 ms
[3]
  Area Under the Curve, Right Eye Post Tx: 10.157 pixels
  Time Under 20, Right Eye Post Tx: 5.099 Ln ms

Source: US20250169715A1, “USE OF BLINK REFLEX FOR HEADACHE RESPONSE MONITORING AND/OR TREATMENT SELECTION” (priority 2022, published 2025)
